{
  "source": "ChEMBL document CHEMBL1137284",
  "about": "“Farnesoid X-activated receptor antagonists from a marine sponge Spongia sp” (Bioorg Med Chem Lett, 2006)",
  "key": {"[1]": {"biological_target": "T1, Bile acid receptor (Homo sapiens, UniProt Q96RI1)", "T1 sequence (Q96RI1 whole entry)": "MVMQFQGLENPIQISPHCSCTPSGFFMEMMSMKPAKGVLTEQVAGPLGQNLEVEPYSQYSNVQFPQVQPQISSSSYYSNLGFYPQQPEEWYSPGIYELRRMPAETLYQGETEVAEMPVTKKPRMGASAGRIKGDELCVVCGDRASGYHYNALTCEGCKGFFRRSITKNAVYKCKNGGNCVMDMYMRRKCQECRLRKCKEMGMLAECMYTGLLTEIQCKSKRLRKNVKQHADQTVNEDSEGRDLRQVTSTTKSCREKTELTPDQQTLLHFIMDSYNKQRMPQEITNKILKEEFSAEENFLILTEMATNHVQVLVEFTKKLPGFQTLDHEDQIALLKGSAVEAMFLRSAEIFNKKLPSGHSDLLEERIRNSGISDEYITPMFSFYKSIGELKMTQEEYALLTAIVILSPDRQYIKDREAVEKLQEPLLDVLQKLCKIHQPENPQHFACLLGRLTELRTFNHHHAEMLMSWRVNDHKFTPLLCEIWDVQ", "assay": "Antagonist activity against FXR assessed as transactivation of luciferase reporter gene in CV1 cells", "assay_type": "functional, cell-based, CV-1"}, "[2]": {"assay": "Cytotoxicity against CV1 cells transfected with human FXR by MTT method", "assay_type": "cell-based", "details": "CV-1"}},
  "data": [
    {"smiles": "CC(=O)OC[C@@]12CCC3C(C)(C)CCC[C@]3(C)C1C[C@@H](O)[C@@]1(C)C2CC=C2CO[C@@H](O)[C@@H]21", "note": "(stereo not given in full)", "values": [
      {"measurement": "IC50", "setting": "[1]", "result": 25.3, "unit": "µM"},
      {"measurement": "IC50", "setting": "[2]", "result": 29.2, "unit": "µM"}
    ]},
    {"smiles": "CO[C@@H]1OCC2=CCC3[C@]4(C)CCC5C(C)(C)CCC[C@]5(C)C4C[C@@H](O)[C@]3(C)[C@H]21", "note": "(stereo not given in full)", "values": [
      {"measurement": "IC50", "setting": "[1]", "result": 24.8, "unit": "µM"},
      {"measurement": "IC50", "setting": "[2]", "result": 86.9, "unit": "µM"}
    ]},
    {"smiles": "CC1(C)CCC[C@@]2(C)C1CC[C@]1(CO)C2C[C@@H](O)[C@@]2(C)C1CC=C1CO[C@@H](O)[C@@H]12", "note": "(stereo not given in full)", "values": [
      {"measurement": "IC50", "setting": "[1]", "result": 64.5, "unit": "µM"},
      {"measurement": "IC50", "setting": "[2]", "result": "> 100", "unit": "µM"}
    ]},
    {"smiles": "CC(=O)OC[C@@]12CCC3C(C)(C)CCC[C@]3(C)C1C[C@@H](OC(C)=O)[C@@]1(C)C2CC=C2CO[C@@H](O)[C@@H]21", "note": "(stereo not given in full)", "values": [
      {"measurement": "IC50", "setting": "[1]", "result": 8.1, "unit": "µM"},
      {"measurement": "IC50", "setting": "[2]", "result": 32.7, "unit": "µM"}
    ]},
    {"smiles": "CC(=O)O[C@@H]1CC2[C@@]3(C)CCCC(C)(C)C3CC[C@@]2(C)C2CC=C3CO[C@@H](O)[C@@H]3[C@]21C", "note": "(stereo not given in full)", "values": [
      {"measurement": "IC50", "setting": "[1]", "result": 81.1, "unit": "µM"},
      {"measurement": "IC50", "setting": "[2]", "result": 98.5, "unit": "µM"}
    ]}
  ]
}
